Entries after “also recorded” stand apart in the source; their conditions may differ. Counter-ions that a name gives are not always drawn. One block for each compound: values may come before it.
What was measured:
[1] = Drug solubility in water, DMSO and DCM (HPLC of filtered supernatant); details: for solubility: thermodynamic from solid; for Solubility Water: 50 mg/mL target concentration
Method: For each test, approximately 5-10 mg was transferred to a 10 mL glass vial. Aqueous or organic solvent was added to each vial to achieve an overall concentration of 50 mg/mL. After vortexing aggressively for 2-3 minutes and sonicating in a bath sonicator for 5 minutes, undissolved drug was spun down at 1200 rpm for 5 minutes to generate a pellet. The supernatant was collected and filtered through a 0.2 μm nylon syringe filter into HPLC vials for drug content analysis. Drug concentration was determined by comparing against a standard calibration curve.

[2] = In vitro stability of ethacrynic acid prodrugs at 37° C.; format: physicochemical; details: for generation of parent ethacrynic acid as ester linkages are hydrolyzed: 37° C. over 6 days
Description: As evidenced, both prodrugs of ethacrynic acid degrade steadily over the 6 day period. As the ester linkages are hydrolyzed, the parent compound is generated in a linear rate. The rate of degradation to the parent compound is faster for the shorter […] in comparison to the degradation kinetics for ethacrynic acid-PLA(n=4)-ethyl ester (1).
Approximately 94% of the ECA-PLA(n=4) prodrug (1) has been converted to free ECA by day 6, in comparison to only 56% for ECA-PLA(n=6) (25). Also, by day 6, all the initial prodrug has been degraded into intermediates and free drug respectively.

[3] = In vitro drug release kinetics of Timolol prodrug microparticles in PBS and 1% Tween 20 (pH 7.4) at 37° C.; format: physicochemical; details: PBS and 1% Tween 20 (pH 7.4), 37° C.
Method: In vitro drug release kinetics were evaluated in a release medium composed of PBS and 1% Tween 20 (pH 7.4). Briefly, 10 mg of particles was suspended in 4 mL of the release medium The particle suspension was incubated on an orbital shaker at 150 rpm at 37° C. At various time points, 3 mL of release media was collected, and the suspension was replenished with 3 mL of fresh release media. Collected release samples were frozen and stored at −80° C. until analysis for drug content. The collected samples were filtered through a 0.2 μm syringe filter and analyzed by RP-HPLC. FIG. 17-FIG. 22 illustrate the total and parent Timolol release profile for the microparticles encapsulating bis-prodrugs of Timolol of Table 11.

[4] = Drug release kinetics of Timolol and ethacrynic acid prodrugs from polymer microparticles; format: physicochemical
Method: The effect of polymer composition including monomer ratio and molecular weight, polymer end-groups (ester or acid), inherent viscosity and polymer blend ratios on particle degradation and drug release kinetics of Timolol-O-ethyl fumurate (17) was evaluated and is illustrated in FIG. 5. The rate of particle degradation was slowed and drug release was prolonged when the mole % of DL-lactide over glycolide was increased. By incorporating polymers with different monomer ratios (i.e., PLA, PLGA8515, PLGA525, PLGA5050 wherein 8515 refers to 85% DL-lactide and 15% glycolide) into the particles, it is possible to fine-tune the degradation rate of the particles to achieve a linear rate of drug release from the particles to minimize burst or lag and to extend the duration of release. […] The 78/22(PLA 5A/PLGA8515 4.5A) and 65/20/15(PLA 4A/PLGA6515 4.5A/PLGA5050 4A) polymer blends generated ideal particles for a 3-6 month linear release formulation. […] The rate of release was independent of the salt form. […] Thus, release rate is not solely dictated by the physicochemical properties of the linker, but rather must be attributed to a combination of parameters that may include linker type and site of linker conjugation.
FIG. 6 illustrates the release kinetics of ethacrynic acid-PLA(n=4)-ethyl ester (1) from PLGA microparticles. The drug was released over a period of approximately 66 days.
FIG. 8 and FIG. 9 illustrate the release kinetics of ethacrynic acid-PLA(n=4)-ethyl ester (1) and ethacrynic acid-PLA(n=6)-ethyl ester (25), respectively, from PLGA microparticles. The drug was released from a number of formulations over a period of greater than 90 days. […] Particles generated with 1% PVA in PBS was compared against particles generated in 1% PVA in water (FIG. 10).
Based upon these initial formulation screens, the formulation comprising of 1% mPEG-PLGA and 99% PLA100 4.5A:PLGA8515 5A (77:22) was selected as the lead formulation for ECA-PLA(n=4) (1) and ECA-PLA(n=6) (25) prodrugs. The particles were prepared in 1% PVA in water. The release profiles for the lead ECA-PLA(n=4) (1) and ECA-PLA(=6) (25) particle formulations are illustrated in FIG. 11.

[5] = Percent drug loading of ethacrynic acid prodrug microparticles (RP-HPLC); format: physicochemical
Method: To determine the percent drug loading (% DL), 10 mg of particles was weighed into a glass scintillation vial and dissolved with 10 mL of MeCN:water (1:1, v/v). The solution was filtered through a 0.2 μm nylon syringe filter and the drug content was determined by RP-HPLC referenced against a standard calibration curve.

[6] = Mean size of ethacrynic acid prodrug encapsulated microparticles; format: physicochemical
[7] = DMSO, organic solvent or mixture
[8] = DCM, organic solvent or mixture
[9] = PLA100 4.5A + 1% PEG-PLGA5050, polymer 200 mg/mL
[10] = PLA100 4.5A + PLGA7525 6E (69:30) + 1% PEG-PLGA5050, polymer 200 mg/mL
[11] = PLA100 4.5A + PLGA8515 5A (77:22) + 1% PEG-PLGA5050, polymer 200 mg/mL
[12] = PLA100 4.5A + PLGA8515 5A + PLGA5050 4A (64:20:15) + 1% PEG-PLGA5050, polymer 200 mg/mL
[13] = PLA100 4.5A + PLGA8515 5A + PLGA5050 4A (64:30:5) + 1% PEG-PLGA5050, polymer 200 mg/mL
[14] = PLGA7525 4A + 1% PEG-PLGA5050, polymer 200 mg/mL
[15] = PLGA7525 6A + 1% PEG-PLGA5050, polymer 200 mg/mL
[16] = PLGA8515 5A + 1% PEG-PLGA5050, polymer 200 mg/mL
[17] = PLGA8515 5A + PLGA7525 4A (69:30) + 1% PEG-PLGA5050, polymer 200 mg/mL

Compound: CC(C)(C)NC[C@@H](COc1nsnc1N1CCOCC1)OC(=O)/C=C\C(=O)O [Compound 7, Timolol-O-Maleate]
solubility [1, 7]: > 50 mg/mL
solubility ([1]; water): > 50 mg/mL

Compound: C=C(CC)C(=O)c1ccc(OCC(=O)O[C@@H](C)C(=O)O[C@@H](C)C(=O)OCC)c(Cl)c1Cl [Compound 2, 2-{2-[2,3-Dichloro-4-(2-methylene-butyryl)-phenoxy]-acetoxy}-propionic acid 1-ethoxycarbonyl-ethyl ester]
generation of parent ethacrynic acid as ester linkages are hydrolyzed [2]: generated at a linear rate
rate of degradation to the parent compound / conversion to the free drug ([2]; 37° C., 6 days, comparison between prodrugs): degraded faster; also recorded: significantly faster
solubility [1, 7]: > 50 mg/mL
solubility ([1]; water): < 1 mg/mL

Compound: CCOC(=O)CCC(=O)O[C@@H](CNC(C)(C)C)COc1nsnc1N1CCOCC1.O=C(O)/C=C\C(=O)O [Compound 5, Timolol-O-Ethylsuccinate Maleate]
solubility [1, 7]: > 50 mg/mL
solubility ([1]; water): 12.5 mg/mL

Compound: CCOC(=O)CCC(=O)O[C@@H](CNC(C)(C)C)COc1nsnc1N1CCOCC1.Cl [Compound 6, Timolol-O-Ethylsuccinate HCL]
solubility [1, 7]: > 50 mg/mL
solubility ([1]; water): 6.25 mg/mL

Compound: CC(C)(C)NC[C@@H](COc1nsnc1N1CCOCC1)OC(=O)CCC(=O)O [Compound 4, Succinic acid mono-[(S)-1-(tert-butylamino-methyl)-2-(4-morpholin-4-yl-[1,2,5]thiadiazol-3-yloxy)-ethyl] ester]
solubility [1, 7]: > 50 mg/mL
solubility ([1]; water): > 50 mg/mL

Compound: Dorzolamide-Stearylfumurate [Compound 15]
Solubility DMSO ([1]; DMSO): >100 mg/mL
Solubility Water ([1]; water): >50 mg/mL

Compound: CCOC(=O)/C=C/C(=O)O[C@@H](CNC(C)(C)C)COc1nsnc1N1CCOCC1 [Compound 17, Timolol-O-Ethylfumurate]
linear release profile ([4]; microparticles, 78/22(PLA 5A/PLGA8515 4.5A) and 65/20/15(PLA 4A/PLGA6515 4.5A/PLGA5050 4A) polymer blends, FIG. 5): 3-6 month
solubility [1, 7]: > 50 mg/mL
solubility ([1]; water): < 1 mg/mL
Solubility Water ([1]; water): <1.0 mg/mL

Compound: C=C(CC)C(=O)c1ccc(OCC(=O)O[C@@H](C)C(=O)O[C@@H](C)C(=O)O[C@@H](C)C(=O)O[C@@H](C)C(=O)OCC)c(Cl)c1Cl [Compound 1, (S)-2-{2-[2,3-Dichloro-4-(2-methylene-butyryl)-phenoxy]-acetoxy}-propionic acid (S)-1-[(S)-1-((S)-1-ethoxycarbonyl-ethoxycarbonyl)-ethoxycarbonyl]-ethyl ester]
generation of parent ethacrynic acid as ester linkages are hydrolyzed [2]: generated at a linear rate
rate of degradation of the prodrug ([2]; 37° C., 6 days): slightly faster
prodrug converted to free ECA by day 6 ([2]; 37° C., day 6): Approximately 94%
% Drug loading [5, 9]: 13.42%
% Drug loading [5, 10]: 14.17%
% Drug loading [5, 11]: 12.56%
% Drug loading [5, 12]: 13.75%
% Drug loading [5, 13]: 12.68%
% Drug loading [5, 14]: 13.09%
% Drug loading [5, 15]: 13.15%
% Drug loading [5, 16]: 13.59%
% Drug loading [5, 17]: 13.49%
Mean size [6, 9]: 35.06 um
Mean size [6, 10]: 27.40 um
Mean size [6, 11]: 26.60 um
Mean size [6, 12]: 28.34 um
Mean size [6, 13]: 29.86 um
Mean size [6, 14]: 29.85 um
Mean size [6, 15]: 25.21 um
Mean size [6, 16]: 28.90 um
Mean size [6, 17]: 27.74 um
in vitro release profile of lead microparticle formulation ([4]; 1% mPEG-PLGA and 99% PLA100 4.5A:PLGA8515 5A (77:22), prepared in 1% PVA in water, FIG. 11): typical biphasic release profile
period over which the drug was released ([4]; microparticles of PLA/PLGA blends, PLGA blends, FIG. 6): approximately 66 days
solubility [1, 7]: > 40 mg/mL
solubility ([1]; water): < 1 mg/mL

Compound: Dorzolamide-Laurylmaleate [Compound 16]
Solubility DMSO ([1]; DMSO): >50 mg/mL
Solubility Water ([1]; water): <1.0 mg/mL

Compound: CCOC(=O)/C=C\C(=O)O[C@@H](CNC(C)(C)C)COc1nsnc1N1CCOCC1.O=C(O)/C=C\C(=O)O [Compound 8, Timolol-O-Ethylmaleate-Maleic Acid]
solubility [1, 7]: > 50 mg/mL
solubility ([1]; water): < 1 mg/mL

Compound: CCCCCCCCCCCCOC(=O)/C=C/C(=O)O[C@@H](CNC(C)(C)C)COc1nsnc1N1CCOCC1 [Compound 12, Timolol-O-Laurylfumurate-Maleate]
solubility [1, 7]: > 100 mg/mL
solubility ([1]; water): < 1 mg/mL

Compound: CCN[C@H]1C[C@H](C)S(=O)(=O)c2sc(S(=O)(=O)NC(=O)/C=C/C(=O)OCC)cc21 [Compound 14, Dorzolamide-Ethylfumurate]
solubility [1, 8]: > 100 mg/mL
solubility [1, 7]: > 100 mg/mL
solubility ([1]; water): < 1 mg/mL

More lines, now with the values ahead:

solubility [1, 8]: < 1 mg/mL
solubility [1, 7]: < 1 mg/mL
solubility ([1]; water): > 50 mg/mL
Compound: CCN[C@H]1C[C@H](C)S(=O)(=O)c2sc(S(N)(=O)=O)cc21 [Dorzolamide, reference compound]

parent Timolol released relative to total release of prodrug and intermediates [3]: significantly less
Compound: Timolol-Bis-Acetyl PLA (n = 4) [Compound 54]

solubility [1, 7]: > 100 mg/mL
solubility ([1]; water): > 25 mg/mL
Compound: CCOC(=O)/C=C\C(=O)OC(CNC(C)(C)C)COc1nsnc1N1CCOCC1 (centres unmarked) [Compound 18, Timolol-O-Ethyl Maleate]

parent Timolol released relative to total release of prodrug and intermediates [3]: significantly less
Compound: CC(=O)OC(C)C(=O)OC(C)C(=O)OC(C)C(=O)OC(C)C(=O)N(C[C@@H](COc1nsnc1N1CCOCC1)OC(=O)C(C)OC(=O)C(C)OC(C)=O)C(C)(C)C (some centres unmarked) [Compound 55, Timolol-Bis-N-Acetyl-PLA (n = 4)-O-Acetyl PLA (n = 2)]

parent Timolol released relative to total release of prodrug and intermediates [3]: significantly less
Compound: CC(=O)OC(C)C(=O)OC(C)C(=O)OC(C)C(=O)OC(C)C(=O)O[C@H](COc1nsnc1N1CCOCC1)CN(C(=O)C(C)OC(=O)C(C)OC(C)=O)C(C)(C)C (some centres unmarked) [Compound 56, Timolol-Bis-N-Acetyl-PLA (n = 2)-O-Acetyl-PLA (n = 4)]

solubility [1, 7]: > 50 mg/mL
solubility ([1]; water): < 0.1 mg/mL
Compound: C=C(CC)C(=O)c1ccc(OCC(=O)O[C@@H](C)C(=O)O[C@@H](C)C(=O)O[C@@H](C)C(=O)O[C@@H](C)C(=O)O[C@@H](C)C(=O)O[C@@H](C)C(=O)O[C@@H](C)C(=O)O[C@@H](C)C(=O)OCC)c(Cl)c1Cl [Compound 26]
